From PubChem BioAssay (NCI)
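Step 1: Grow cells in 96-well plates. Step 2: Expose to compound for 48 hours at 5 concentrations. Step 3: Interpolate endpoints linearly; if unreached, use highest concentration. The concentration for full growth arrest is given as TGI.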

Legend:
Experiment in all cases: inhibition of tumour cell growth, NCI panel, 48 h
[1] = tested on: A498 renal
[2] = tested on: A549 NSCLC
[3] = tested on: ACHN renal
[4] = tested on: CAKI-1 renal
[5] = tested on: CCRF-CEM leukemia
[6] = tested on: COLO 205 colon
[7] = tested on: DU-145 prostate
[8] = tested on: EKVX NSCLC
[9] = tested on: HCC-2998 colon
[10] = tested on: HCT-15 colon
[11] = tested on: HL-60(TB) leukemia
[12] = tested on: HOP-62 NSCLC
[13] = tested on: HOP-92 NSCLC
[14] = tested on: HS 578T breast
[15] = tested on: HT29 colon
[16] = tested on: IGROV1 ovarian
[17] = tested on: K-562 leukemia
[18] = tested on: KM12 colon
[19] = tested on: LOX IMVI melanoma
[20] = tested on: M14 melanoma
[21] = tested on: MCF7 breast
[22] = tested on: MDA-MB-231 breast
[23] = tested on: MDA-MB-435
[24] = tested on: MDA-N
[25] = tested on: MOLT-4 leukemia
[26] = tested on: NCI-H23 lung
[27] = tested on: NCI-H460 lung
[28] = tested on: NCI/ADR-RES ovarian
[29] = tested on: OVCAR-3 ovarian
[30] = tested on: OVCAR-4 ovarian
[31] = tested on: OVCAR-5 ovarian
[32] = tested on: OVCAR-8 ovarian
[33] = tested on: PC-3 prostate
[34] = tested on: RPMI-8226 leukemia
[35] = tested on: RXF 393 renal
[36] = tested on: SF-268 CNS
[37] = tested on: SF-295 CNS
[38] = tested on: SF-539 CNS
[39] = tested on: SK-MEL-2 melanoma
[40] = tested on: SK-MEL-28 melanoma
[41] = tested on: SK-MEL-5 melanoma
[42] = tested on: SK-OV-3 ovarian
[43] = tested on: SNB-19 CNS
[44] = tested on: SNB-75 CNS
[45] = tested on: SR leukemia
[46] = tested on: SW-620 colon
[47] = tested on: T-47D breast
[48] = tested on: TK-10 renal
[49] = tested on: U251 CNS
[50] = tested on: UACC-257 melanoma
[51] = tested on: UACC-62 melanoma
[52] = tested on: UO-31 renal
[53] = tested on: 786-0 renal
[54] = tested on: HCT-116 colon
[55] = tested on: MALME-3M melanoma
[56] = tested on: NCI-H226 lung
[57] = tested on: NCI-H522 lung
[58] = tested on: SN12C renal

CCOC(=O)c1csc(NC(=O)CN2CCOCC2)n1
TGI [1]: > 100 µM
TGI [2]: > 100 µM
TGI [3]: > 100 µM
TGI [4]: > 100 µM
TGI [5]: > 100 µM
TGI [6]: > 100 µM
TGI [7]: > 100 µM
TGI [8]: > 100 µM
TGI [9]: > 100 µM
TGI [10]: > 100 µM
TGI [11]: > 100 µM
TGI [12]: > 100 µM
TGI [13]: > 100 µM
TGI [14]: > 100 µM
TGI [15]: > 100 µM
TGI [16]: > 100 µM
TGI [17]: > 100 µM
TGI [18]: > 100 µM
TGI [19]: > 100 µM
TGI [20]: > 100 µM
TGI [21]: > 100 µM
TGI [22]: > 100 µM
TGI [23]: > 100 µM
TGI [24]: > 100 µM
TGI [25]: 48.5 µM
TGI [26]: > 100 µM
TGI [27]: > 100 µM
TGI [28]: > 100 µM
TGI [29]: > 100 µM
TGI [30]: > 100 µM
TGI [31]: > 100 µM
TGI [32]: > 100 µM
TGI [33]: > 100 µM
TGI [34]: > 100 µM
TGI [35]: > 100 µM
TGI [36]: > 100 µM
TGI [37]: > 100 µM
TGI [38]: > 100 µM
TGI [39]: > 100 µM
TGI [40]: > 100 µM
TGI [41]: > 100 µM
TGI [42]: > 100 µM
TGI [43]: > 100 µM
TGI [44]: > 100 µM
TGI [45]: > 100 µM
TGI [46]: > 100 µM
TGI [47]: > 100 µM
TGI [48]: > 100 µM
TGI [49]: > 100 µM
TGI [50]: > 100 µM
TGI [51]: > 100 µM
TGI [52]: > 100 µM

Cc1ccc([N+](=O)[O-])cc1NC1=NCCO1
TGI [53]: > 100 µM
TGI [1]: > 100 µM
TGI [2]: > 100 µM
TGI [3]: > 100 µM
TGI [4]: > 100 µM
TGI [5]: > 100 µM
TGI [6]: > 100 µM
TGI [7]: > 100 µM
TGI [8]: > 100 µM
TGI [9]: > 100 µM
TGI [54]: > 100 µM
TGI [10]: > 100 µM
TGI [11]: > 100 µM
TGI [12]: > 100 µM
TGI [14]: > 100 µM
TGI [15]: > 100 µM
TGI [16]: > 100 µM
TGI [17]: > 100 µM
TGI [18]: > 100 µM
TGI [19]: > 100 µM
TGI [20]: > 100 µM
TGI [55]: > 100 µM
TGI [21]: > 100 µM
TGI [22]: > 100 µM
TGI [23]: > 100 µM
TGI [24]: > 100 µM
TGI [25]: > 100 µM
TGI [56]: > 100 µM
TGI [26]: > 100 µM
TGI [27]: > 100 µM
TGI [57]: > 100 µM
TGI [28]: > 100 µM
TGI [29]: > 100 µM
TGI [30]: > 100 µM
TGI [31]: > 100 µM
TGI [32]: > 100 µM
TGI [33]: > 100 µM
TGI [34]: > 100 µM
TGI [35]: > 100 µM
TGI [36]: > 100 µM
TGI [37]: > 100 µM
TGI [38]: > 100 µM
TGI [39]: > 100 µM
TGI [40]: > 100 µM
TGI [41]: > 100 µM
TGI [42]: > 100 µM
TGI [58]: > 100 µM
TGI [43]: > 100 µM
TGI [44]: > 100 µM
TGI [45]: > 100 µM
TGI [46]: > 100 µM
TGI [47]: > 100 µM
TGI [48]: > 100 µM
TGI [49]: > 100 µM
TGI [50]: > 100 µM
TGI [51]: > 100 µM
TGI [52]: > 100 µM
